Reference: paper PMC6800369 (Proceedings of the National Academy of Sciences of the …, 2019)
Blank lines part the entries; values can stand above or below the compound they belong to.

What was measured:
PRK = molecular target: T1, PRK (Thermosynechococcus vestitus, UniProt Q8DHN2); assay: ADP production, coupled assay with ADP-hexokinase; assay type: biochemical; conditions: ternary complex reduced with DTT
T1 sequence (Q8DHN2 1-334): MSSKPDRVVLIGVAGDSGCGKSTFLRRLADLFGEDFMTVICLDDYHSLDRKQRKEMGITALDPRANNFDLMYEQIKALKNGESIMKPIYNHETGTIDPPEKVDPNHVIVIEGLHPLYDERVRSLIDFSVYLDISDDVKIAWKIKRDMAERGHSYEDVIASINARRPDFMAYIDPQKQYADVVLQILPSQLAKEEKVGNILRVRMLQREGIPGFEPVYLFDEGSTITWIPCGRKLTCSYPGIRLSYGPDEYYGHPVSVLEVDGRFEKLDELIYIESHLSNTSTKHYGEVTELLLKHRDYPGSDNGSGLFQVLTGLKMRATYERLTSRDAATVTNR

GAPDH = molecular target: T2, GAPDH (Thermosynechococcus vestitus, UniProt Q8DIW5); assay: X-ray crystal structure; assay type: binding
T2 sequence (Q8DIW5 1-337): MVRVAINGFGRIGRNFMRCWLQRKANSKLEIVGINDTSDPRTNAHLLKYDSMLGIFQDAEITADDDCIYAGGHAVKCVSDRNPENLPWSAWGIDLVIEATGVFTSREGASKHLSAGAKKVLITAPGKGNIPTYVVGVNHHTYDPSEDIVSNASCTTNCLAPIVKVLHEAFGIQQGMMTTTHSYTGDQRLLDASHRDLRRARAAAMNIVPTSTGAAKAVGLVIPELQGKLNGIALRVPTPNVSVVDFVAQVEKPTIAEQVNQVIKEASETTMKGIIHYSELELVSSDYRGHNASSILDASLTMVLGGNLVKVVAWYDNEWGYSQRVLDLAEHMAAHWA

GAPDH-CP12 = molecular target: T3, GAPDH-CP12 (Thermosynechococcus vestitus, UniProt Q8DIW5); assay: X-ray crystal structure; assay type: binding; conditions: proximal (CP12-occupied) and distal sites
T3 sequence (Q8DIW5 1-337): T2 sequence (Q8DIW5 1-337)
T3 sequence (Q8DHX3 1-75 partner): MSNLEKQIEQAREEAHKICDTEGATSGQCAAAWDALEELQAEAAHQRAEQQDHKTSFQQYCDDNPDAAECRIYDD

SMILES: Nc1ncnc2c1ncn2[C@@H]1O[C@H](COP(=O)(O)OP(=O)(O)OP(=O)(O)O)[C@@H](O)[C@H]1O [ATP]
- ADP production, coupled assay with ADP-hexokinase (PRK; co-substrate ribulose 5-phosphate): measuring ADP production from ATP and ribulose 5-phosphate (Ru5P)

SMILES: NC(=O)c1ccc[n+]([C@@H]2O[C@H](COP(=O)(O)OP(=O)(O)OC[C@H]3O[C@@H](n4cnc5c(N)ncnc54)[C@H](OP(=O)(O)O)[C@@H]3O)[C@@H](O)[C@H]2O)c1 [NADP^+]
- X-ray crystal structure (GAPDH; NAD+ exchanged for NADP+ by turnover): this could be exchanged for NADP^+ by turning over the enzyme

- X-ray crystal structure (GAPDH; NAD+ bound from E. coli expression): GAPDH-NAD^+, GAPDH-NADP^+
SMILES: NC(=O)c1ccc[n+]([C@@H]2O[C@H](COP(=O)(O)OP(=O)(O)OC[C@H]3O[C@@H](n4cnc5c(N)ncnc54)[C@H](O)[C@@H]3O)[C@@H](O)[C@H]2O)c1 [NAD^+]
- X-ray crystal structure (GAPDH-CP12): The CP12-bound (proximal) site makes extensive contacts with both NAD^+ and GAPDH

SMILES: O=C(CO)[C@H](O)[C@H](O)COP(=O)(O)O [ribulose 5-phosphate]
- ADP production, coupled assay with ADP-hexokinase (PRK; co-substrate ATP): measuring ADP production from ATP and ribulose 5-phosphate (Ru5P)
